According to ChEMBL document CHEMBL3886179, “Substituted 6, 7-dialkoxy-3-isoquinoline derivatives as inhibitors of phosphodiesterase 10 (PDE 10A)” (2015):

Target: cAMP and cAMP-inhibited cGMP 3',5'-cyclic phosphodiesterase 10A (Homo sapiens, UniProt Q9Y233)
Assay: Diaxonhit Phosphodiesterase Assay: The phosphodiesterase assay was developed using the LANCE cAMP kit (PerkinElmer). The assay buffer contained HBSS with 5 mM HEPES, 0.1% BSA, and 1.5 mM MgCl2, pH 7.4. PDE10A (BPS Bioscience) was used at 200 pg/well (with a specific activity of 3200 pmole/min/ug with assay conditions: 10 mM Tris-HCl, pH 7.4, 10 mM MgCl2, 1 mM MnCl2, 200 uM cAMP, 2.5 kU 5' nucleotidase, 37° C., 20 min) and PDE4D3 (BPS Bioscience) was used at 100 pg/well (with a specific activity of 32713 pmole/min/ug with assay conditions: 10 mM Tris-HCl, pH 7.4, 10 mM MgCl2, 1 mM MnCl2, 200 uM cAMP, 2.5 kU 5' nucleotidase, 37° C., 20 min). The Biotin-cAMP tracer, supplied in 10 mmol/L Tris-HCl buffered (pH 8.0) salt solution with 1 mmol/L ethylenediaminetetraacetic acid (EDTA), 0.1% bovine serum albumin (BSA), and 0.05% sodium azide, is used at a dilution of 1/375. The assay detection mixture contained the LANCE Eu-W8044 labeled streptavidin 1/2250 (supplied in 50 mmol/L Tris-HCl buffer).

Sequence of cAMP and cAMP-inhibited cGMP 3',5'-cyclic phosphodiesterase 10A (Q9Y233 whole entry): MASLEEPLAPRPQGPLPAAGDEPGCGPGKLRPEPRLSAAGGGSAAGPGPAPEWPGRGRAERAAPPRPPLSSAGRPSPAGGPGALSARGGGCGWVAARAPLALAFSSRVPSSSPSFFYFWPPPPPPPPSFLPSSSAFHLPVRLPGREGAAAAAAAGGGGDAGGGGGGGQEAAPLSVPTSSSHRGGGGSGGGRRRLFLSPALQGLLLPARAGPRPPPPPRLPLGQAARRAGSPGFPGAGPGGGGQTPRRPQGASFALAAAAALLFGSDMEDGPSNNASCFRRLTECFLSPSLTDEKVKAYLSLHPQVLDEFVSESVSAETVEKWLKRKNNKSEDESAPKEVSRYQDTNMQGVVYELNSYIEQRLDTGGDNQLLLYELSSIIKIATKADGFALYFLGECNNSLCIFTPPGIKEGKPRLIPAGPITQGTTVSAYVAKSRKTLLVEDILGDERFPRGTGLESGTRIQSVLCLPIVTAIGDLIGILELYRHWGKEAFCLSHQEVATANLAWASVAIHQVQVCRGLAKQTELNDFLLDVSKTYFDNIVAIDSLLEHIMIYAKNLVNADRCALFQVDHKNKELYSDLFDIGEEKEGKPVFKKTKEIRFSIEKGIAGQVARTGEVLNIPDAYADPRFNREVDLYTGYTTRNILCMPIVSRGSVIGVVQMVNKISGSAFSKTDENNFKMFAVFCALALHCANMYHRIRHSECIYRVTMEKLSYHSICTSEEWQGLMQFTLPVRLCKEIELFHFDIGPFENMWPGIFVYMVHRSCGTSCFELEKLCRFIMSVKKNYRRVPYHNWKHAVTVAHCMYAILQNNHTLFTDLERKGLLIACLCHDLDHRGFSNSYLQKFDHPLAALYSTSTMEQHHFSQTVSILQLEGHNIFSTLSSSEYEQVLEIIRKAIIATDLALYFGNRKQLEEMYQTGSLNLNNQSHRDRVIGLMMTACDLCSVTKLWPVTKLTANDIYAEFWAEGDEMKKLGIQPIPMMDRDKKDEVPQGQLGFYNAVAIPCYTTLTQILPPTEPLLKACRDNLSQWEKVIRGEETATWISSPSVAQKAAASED

Row | SMILES | IC50
1 | COc1cc2c[n+]([O-])cc(Cc3ccc4oc5ccccc5c4c3)c2cc1OC | 31 nM
2 | CCOc1cc2c(Cc3ccc4oc5ccccc5c4c3)cncc2cc1OC | 287 nM
3 | CCc1ncc(Cc2ccc3oc4ccccc4c3c2)c2cc(OC)c(OC)cc12 | 339 nM
4 | COc1cc2c(Cc3ccc4oc5ccccc5c4c3)cnc(C)c2cc1OC | 184 nM
5 | CCOC(=O)COc1cccc2ccc(Cc3cncc4cc(OC)c(OC)cc34)nc12 | 51 nM
6 | CCCc1ncc(Cc2cnc3ccccc3c2)c2cc(OC)c(OC)cc12 | 11 nM
7 | COc1cc2cncc(Cc3ccc4c(c3)CCC(C)(C)O4)c2cc1OC | 81 nM
8 | COc1cc2c(Cc3ccc4nc(C)ccc4c3)cnc(-c3ccccc3)c2cc1OC | 148 nM
9 | c1ccc2c(c1)oc1ccc(Cc3cncc4cc5c(cc34)OCCO5)cc12 | 7560 nM
10 | c1ccc2c(c1)oc1ccc(Cc3cncc4cc5c(cc34)OCO5)cc12 | 3170 nM
11 | COc1cc2cncc(Cc3ccc4cccc(OCC(N)=O)c4n3)c2cc1OC | 21 nM
12 | CCc1ncc(Cc2cc3cc(OC)ccc3nc2O)c2cc(OC)c(OC)cc12 | 44 nM
13 | COc1cc2cncc(Cc3ccc4nc(C)ccc4c3)c2cc1OC | 6.5 nM
14 | CCOc1c(Cc2cncc3cc(OC)c(OC)cc23)cnc2c1cnn2CC | 3560 nM
15 | CCCc1ncc(Cc2ccc3oc4ccccc4c3c2)c2cc(OC)c(OC)cc12 | 278 nM
16 | COc1ccc2nc(O)c(Cc3cncc4cc(OC)c(OC)cc34)cc2c1 | 25 nM
17 | CCc1ncc(Cc2ccc3nc(C)ccc3c2)c2cc(OC)c(OC)cc12 | 28 nM
18 | CCCc1ncc(Cc2ccc3cccc(O)c3n2)c2cc(OC)c(OC)cc12 | 20 nM
19 | CCCc1ncc(Cc2cc3ccccc3nc2O)c2cc(OC)c(OC)cc12 | 36 nM
20 | CCCc1ncc(Cc2cc3cc(OC)ccc3nc2OCCNC(C)=O)c2cc(OC)c(OC)cc12 | 65 nM
21 | CCn1ncc2c(Cl)c(Cc3cncc4cc(OC)c(OC)cc34)cnc21 | 330 nM
22 | COc1cc2cncc(Cc3ccc4cccc(OCc5cccnc5)c4n3)c2cc1OC | 90 nM
23 | CCCc1ncc(Cc2cc3cc(OCC)ccc3nc2O)c2cc(OC)c(OC)cc12 | 99 nM
24 | COc1cc2cncc(Cc3ccc4cccc(OCc5ccncc5)c4n3)c2cc1OC | 213 nM
25 | CCn1ncc2c(O)c(Cc3cncc4cc(OC)c(OC)cc34)cnc21 | 238 nM

Continued, values first:

Row | IC50 | SMILES
26 | 49 nM | CCOc1cccc2ccc(Cc3cncc4cc(OC)c(OC)cc34)nc12
27 | 194 nM | COc1cc2c(Cc3ccc4ccccc4c3)cnc(C)c2cc1OC
28 | 23 nM | COc1cc2cncc(Cc3ccc4cccc(O)c4n3)c2cc1OC
29 | 19 nM | CCc1ncc(Cc2cnc3ccccc3c2)c2cc(OC)c(OC)cc12
30 | 92 nM | CCOc1cc2c(Cc3cnc4ccccc4c3)cncc2cc1OC
31 | 13 nM | COc1cc2cncc(Cc3cnc4ccccc4c3)c2cc1OC
32 | 105 nM | COc1cc2cncc(Cc3ccc4ccccc4c3)c2cc1OC
33 | 110 nM | COc1cc2cncc(Cc3ccc4c(c3)Cc3ccccc3-4)c2cc1OC
34 | 54 nM | COc1ccc2cc(Cc3cncc4cc(OC)c(OC)cc34)ccc2c1
35 | 315 nM | CCCOc1cccc2ccc(Cc3cncc4cc(OC)c(OC)cc34)nc12
36 | 74 nM | COc1cc2cncc(Cc3ccc4[nH]cnc4c3)c2cc1OC
37 | 7.6 nM | COc1cc2cncc(Cc3ccc4oc5ccccc5c4c3)c2cc1OC
38 | 142 nM | COc1cc2cncc(Cc3cc4ccccc4nc3N(C)C)c2cc1OC
39 | 208 nM | COc1cc2cncc(Cc3ccc4ccccc4n3)c2cc1OC
40 | 1070 nM | COc1cc2cnc(C)c(Cc3ccc4ccccc4c3)c2cc1OC
41 | 168 nM | CCOc1cc2cncc(Cc3cnc4ccccc4c3)c2cc1OCC
42 | 95 nM | COc1cc2cncc(Cc3cc4ccccc4nc3Cl)c2cc1OC
43 | 54 nM | COc1cc2cncc(Cc3ccc4ncccc4c3)c2cc1OC
44 | 18 nM | COc1ccc2cc(Cc3cncc4cc(OC)c(OC)cc34)cnc2c1
45 | 132 nM | COc1cc2cncc(Cc3ccc4c(c3)CCN4C)c2cc1OC
46 | 70 nM | COc1cc2cncc(Cc3ccc4c(c3)OCCN4C)c2cc1OC
